In patent US20120177797A1, “TASTE ENHANCING AGENT” (J-OIL MILLS, INC., priority 2009, published 2012):

Columns and labels:
Format in all cases: in vivo
[1] = Sensory evaluation, intensity of umami in aqueous MSG solution; details: 10 ppm added to 0.2% MSG; additive-free = 3.0; 1.0 much weaker to 5.0 much stronger; mean of three individuals, nose clip
Experimental: (§1) All sensory evaluation of taste was performed by individuals wearing a nose clip. The evaluation was performed by groups of three individuals, and the scores were averaged.
(§2) To a 0.2% aqueous sodium glutamate (MSG) solution (=umami), a 0.8% aqueous salt (NaCl) solution (=saltiness) and a 2% aqueous sucrose solution (=sweetness) were added 10 ppm linear aliphatic aldehydes having 3-12 carbon atoms shown in Table 1, respectively. Sensory evaluation was performed in which intensity of taste sensed when each of the aqueous solutions is introduced into the mouth is defined as “Intensity of umami” for the aqueous MSG solution, “Intensity of saltiness” for the aqueous NaCl solution and “Intensity of sweetness” for the aqueous sucrose solution. The score of aldehyde-free taste intensity was set to 3.0, and taste intensity upon addition of aldehyde was evaluated as follows. The results are shown in Table 1. • 1.0: Much weaker • 2.0: Weaker • 3.0: Similar • 4.0: Stronger • 5.0: Much Stronger
(§3) To a 0.2% aqueous sodium glutamate (MSG) solution (=umami), a 0.8% aqueous salt (NaCl) solution (=saltiness), a 2% aqueous sucrose solution (=sweetness) were added 10 ppm linear aliphatic alcohols having 2-11 carbon atoms, respectively. Sensory evaluation was performed in which intensity of taste sensed when each of the aqueous solutions is introduced into the mouth is defined as “Intensity of umami” for the aqueous MSG solution, “Intensity of saltiness” for the aqueous NaCl solution and “Intensity of sweetness” for the aqueous sucrose solution. The score of alcohol-free taste intensity was set to 3.0, and taste intensity upon addition was evaluated as follows. The results are shown in Table 3. • 1.0: Much weaker • 2.0: Weaker • 3.0: Similar • 4.0: Stronger • 5.0: Much stronger
(§4) To a 0.2% aqueous sodium glutamate (MSG) solution (=umami), a 0.8% aqueous salt (NaCl) solution (=saltiness), a 2% aqueous sucrose solution (=sweetness) were added 1 ppm n-hexanal and 1ppm 1-octene-3-ol each, respectively. Sensory evaluation was performed in which the intensity of taste sensed when each of the aqueous solutions is introduced into the mouth is defined as “Intensity of umami” for the aqueous MSG solution, “Intensity of saltiness” for the aqueous NaCl solution and “Intensity of sweetness” for the aqueous sucrose solution. The score of additive-free taste intensity was set to 3.0, and taste intensity upon addition was evaluated as follows. The results are shown in Table 9. • 1.0: Much weaker • 2.0: Weaker • 3.0: Similar • 4.0: Stronger • 5.0: Much stronger

[2] = Sensory evaluation, intensity of saltiness in aqueous NaCl solution; details: 10 ppm added to 0.8% NaCl; additive-free = 3.0; 1.0 much weaker to 5.0 much stronger
Experimental: as §1, §2, §3, §4

[3] = Sensory evaluation, intensity of sweetness in aqueous sucrose solution; details: 10 ppm added to 2% sucrose; additive-free = 3.0; 1.0 much weaker to 5.0 much stronger
Experimental: as §1, §2, §3, §4

[4] = Sensory evaluation whether salt usage can be reduced; details: nothing added, for comparison, 0.5% NaCl solution = 3.0
Experimental: as §1
Evaluation was conducted to find whether salt usage can be reduced by the taste enhancing effects. To a 0.5% aqueous NaCl solution was added 10 ppm n-hexanal or 10 ppm 1-octen-3-ol. Taste intensity was determined in the sensory evaluation where the taste intensity of the 0.5% NaCl solution was set to 3.0. For comparison, sensory evaluation was also performed for a 0.8% and 0.6% concentration of aqueous NaCl solution. The sensory evaluation was evaluated as follows. The results are shown in Table 5. • 1.0: Much weaker • 2.0: Weaker • 3.0: Similar • 4.0: Stronger • 5.0: Much stronger

[5] = Sensory evaluation, intensity of saltiness in diluted soy sauce; details: 10 ppm in soy sauce diluted to 2% in water; aldehyde-free = 3.0; scale 1.0-5.0
Experimental: as §1
(§5) Sensory evaluation was performed for “Intensity of Umani ” and “ Intensity of Saltiness “. The score of aldehyde-free taste intensity was set to 3.0, and taste intensity upon addition was evaluated as follows. The results are shown in Table 7. • 1.0: Much weaker • 2.0: Weaker • 3.0: Similar • 4.0: Stronger • 5.0: Much stronger

[6] = Sensory evaluation, intensity of umami in diluted soy sauce; details: 10 ppm in soy sauce diluted to 2% in water; aldehyde-free = 3.0; scale 1.0-5.0
Experimental: as §1, §5

[7] = Sensory evaluation, intensity of sweetness in whipped cream; details: 100 ppm in whipped cream; aldehyde-free = 3.0; scale 1.0-5.0
Experimental: as §1
Sensory evaluation was performed for “Intensity of sweetness”. The score of aldehyde-free taste intensity was set to 3.0, and taste intensity upon addition was evaluated as follows. The results are shown in Table 8. • 1.0: Much weaker • 2.0: Weaker • 3.0: Similar • 4.0: Stronger • 5.0: Much stronger

[8] = Sensory evaluation, intensity of saltiness in aqueous NaCl solution; details: 10 ppm added to 0.8% NaCl; additive-free = 3.0; 1.0 much weaker to 5.0 much stronger; remark: listed apart in the source
[9] = Sensory evaluation, intensity of umami in aqueous MSG solution; details: 10 ppm added to 0.2% MSG; additive-free = 3.0; 1.0 much weaker to 5.0 much stronger; mean of three individuals, nose clip; remark: listed apart in the source
[10] = Sensory evaluation, intensity of sweetness in aqueous sucrose solution; details: 10 ppm added to 2% sucrose; additive-free = 3.0; 1.0 much weaker to 5.0 much stronger; remark: listed apart in the source
[11] = Sensory evaluation whether sucrose usage can be reduced; details: nothing added, for comparison, 1.5% sucrose solution = 3.0
Experimental: as §1
Evaluation was conducted to find whether sucrose usage can be reduced by the taste enhancing effects. To a 1.5% aqueous sucrose solution was added 10 ppm n-hexanal or 10 ppm 1-octen-3-ol. Taste intensity was determined in the sensory evaluation where the taste intensity of the 1.5% sucrose solution was set to 3.0. For comparison, sensory evaluation was also performed for a 2.0% and 1.8% concentration of aqueous sucrose solution. The sensory evaluation was evaluated as follows. The results are shown in Table 6. • 1.0: Much weaker • 2.0: Weaker • 3.0: Similar • 4.0: Stronger • 5.0: Much stronger

| Structure (SMILES) | Intensity of umami, Aqueous MSG solution [1] | Intensity of saltiness, Aqueous NaCl solution [2] | Intensity of sweetness, Aqueous sucrose solution [3] | other results |
| --- | --- | --- | --- | --- |
| C=CC(O)CCCCCCC (stereo not shown) [1-decene-3-ol] | 3.2 | 3.2 | 3.5 |  |
| C=CC(O)CCC (stereo not shown) [1-hexene-3-ol] | 3.2 | 3.2 | 3.5 |  |
| CCCCCC=CC=CC=O [2,4-decadienal] | 3.5 | 3.5 | 3.5 |  |
| C=CCCCC=CCO [2,7-octadienol] | 3.2 | 3.2 | 3.5 |  |
| CCCCO [Example 1-butanol, 1-butanol] | 3.2 | 3.2 | 3.2 |  |
| C=CC(C)O (stereo not shown) [Example 1-buten-3-ol, 1-buten-3-ol] | 3.2 | 3.2 | 3.5 |  |
| CCCCCCCCCCO [Example 1-decanol, 1-decanol] | 3.2 | 3.2 | 3.2 |  |
| CCCCCCCO [Example 1-heptanol, 1-heptanol] | 3.2 | 3.2 | 3.2 |  |
| CCCCCCO [Example 1-hexanol, 1-hexanol] | 3.2 | 3.2 | 3.2 |  |
| CCCCCCCCCO [Example 1-nonanol, 1-nonanol] | 3.2 | 3.2 | 3.2 |  |
| CCCCCCCCO [Example 1-octanol, 1-octanol] | 3.2 | 3.2 | 3.2 |  |
| CCCCCO [Example 1-pentanol, 1-pentanol] | 3.2 | 3.2 | 3.2 |  |
| CCCCCCCCCCCO [Example 1-undecanol, 1-undecanol, reference compound] | 3.0 | 3.0 | 3.0 |  |
| CCCC=CC=O [Example 2-hexenal, 2-hexenal] | 3.8 | 3.8 | 3.8 |  |
| [Cl-].[Na+] [NaCl, sodium chloride, reference compound] |  |  |  | Scores in sensory evaluation (taste intensity, saltiness) ([4]; 0.6% aqueous NaCl solution): 3.5; Scores in sensory evaluation (taste intensity, saltiness) ([4]; 0.8% aqueous NaCl solution): 4.0 |
| CCO [ethanol, reference compound] | 3.0 | 3.0 | 3.0 |  |
| CCCC=O [n-butanal] | 3.5 | 3.5 | 3.5 | Intensity of saltiness [5]: 3.5; Intensity of umami [6]: 3.5; Intensity of sweetness [7]: 3.5 |
| CCCCCCCCCC=O [n-decanal] | 3.5 | 3.5 | 3.5 | Intensity of saltiness [5]: 3.5; Intensity of umami [6]: 3.5; Intensity of sweetness [7]: 3.5 |
| CCCCCCCCCCCC=O [n-dodecanal, reference compound] | 3.0 | 3.0 | 3.0 |  |
| CCCCCCC=O [n-heptanal] | 4.5 | 4.5 | 4.0 | Intensity of saltiness [5]: 4.0; Intensity of umami [6]: 4.0; Intensity of sweetness [7]: 4.0 |
| CCCCCCCC=O [n-octanal] | 3.8 | 3.8 | 3.5 | Intensity of saltiness [5]: 3.5; Intensity of umami [6]: 3.5; Intensity of sweetness [7]: 3.5 |
| CCCCC=O [n-pentanal] | 4.5 | 4.5 | 4.0 | Intensity of saltiness [5]: 4.2; Intensity of umami [6]: 4.2; Intensity of sweetness [7]: 4.2 |
| CCC=O [n-propanal] | 3.5 | 3.5 | 3.5 | Intensity of saltiness [5]: 3.5; Intensity of umami [6]: 3.5; Intensity of sweetness [7]: 3.5 |
| CCCCCCCCCCC=O [n-undecanal, reference compound] | 3.0 | 3.0 | 3.0 |  |
| CCCO [propanol, reference compound] |  |  |  | Intensity of saltiness, Aqueous NaCl solution [8]: 3.0; Intensity of umami, Aqueous MSG solution [9]: 3.0; Intensity of sweetness, Aqueous sucrose solution [10]: 3.0 |
| OC[C@H]1O[C@@](CO)(O[C@H]2O[C@H](CO)[C@@H](O)[C@H](O)[C@H]2O)[C@@H](O)[C@@H]1O [sucrose, reference compound] |  |  |  | Scores in sensory evaluation (taste intensity, sweetness) ([11]; 1.8% aqueous sucrose solution): 3.5; Scores in sensory evaluation (taste intensity, sweetness) ([11]; 2.0% aqueous sucrose solution): 4.0 |
